SMILES strings stand for the structures. Where two headings read alike, the source gives them in different places. Bounds are passed on as bounds.

Assay [1] deals with His6-TEV-PDGFRβ (557-1016) (Homo sapiens (Human), UniProt P09619). The assay is described as follows: PDGFRβ HTRF Assay. Type of assay: biochemical. The note with it: read-out: PDGFR HTRF IC50. The gist of the method:
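HTRF KinEASE-TK readout (665/620 nm ratio) of TK-biotin substrate phosphorylation by His-tagged PDGFRβ kinase domain. Enzyme and inhibitor preincubated 30 min, then ATP/substrate added for 3 h at room temperature before 60 min EDTA quench/detection.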

For assay [2], the target named is Tb-labeled inactive PDGFRβ (Homo sapiens (Human), UniProt P09619). The experiment in a line: PDGFRβ LanthaScreen Assay. It is filed as binding. The following applies: read-out: PDGFR Lantha IC50.
Chain of Tb-labeled inactive PDGFRβ (P09619 33-1106): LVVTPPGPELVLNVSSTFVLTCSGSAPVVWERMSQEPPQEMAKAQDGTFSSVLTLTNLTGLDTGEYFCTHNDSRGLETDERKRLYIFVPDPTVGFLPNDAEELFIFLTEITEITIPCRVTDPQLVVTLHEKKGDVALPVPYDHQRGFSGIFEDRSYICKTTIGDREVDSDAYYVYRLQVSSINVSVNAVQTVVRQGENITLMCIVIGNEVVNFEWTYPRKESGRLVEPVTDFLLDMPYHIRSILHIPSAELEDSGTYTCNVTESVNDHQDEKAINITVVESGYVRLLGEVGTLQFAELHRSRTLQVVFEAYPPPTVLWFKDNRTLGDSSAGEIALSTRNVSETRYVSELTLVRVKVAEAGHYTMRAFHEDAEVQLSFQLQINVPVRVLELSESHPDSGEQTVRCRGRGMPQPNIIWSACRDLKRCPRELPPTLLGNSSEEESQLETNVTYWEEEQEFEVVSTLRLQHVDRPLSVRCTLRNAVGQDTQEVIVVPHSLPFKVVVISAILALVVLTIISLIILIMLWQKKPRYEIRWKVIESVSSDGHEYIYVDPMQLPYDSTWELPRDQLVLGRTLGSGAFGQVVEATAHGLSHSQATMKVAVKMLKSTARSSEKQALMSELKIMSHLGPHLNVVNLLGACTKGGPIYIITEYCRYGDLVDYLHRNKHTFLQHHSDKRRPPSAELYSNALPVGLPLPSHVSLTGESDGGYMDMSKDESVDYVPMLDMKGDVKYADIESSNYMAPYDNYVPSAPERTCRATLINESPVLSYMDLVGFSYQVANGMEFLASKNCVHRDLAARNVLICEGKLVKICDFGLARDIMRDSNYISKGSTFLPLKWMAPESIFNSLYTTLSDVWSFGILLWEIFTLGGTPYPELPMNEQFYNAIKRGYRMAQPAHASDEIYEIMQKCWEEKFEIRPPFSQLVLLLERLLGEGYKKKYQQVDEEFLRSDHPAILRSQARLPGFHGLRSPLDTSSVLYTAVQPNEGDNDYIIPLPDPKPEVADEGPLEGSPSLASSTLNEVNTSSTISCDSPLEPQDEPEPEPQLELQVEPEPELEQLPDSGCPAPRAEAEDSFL
In assay [3] the target is PDGFRβ (Rattus norvegicus (Rat), UniProt Q05030). The assay is described as follows: PDGFRβ Cellular Assay (PDGFRb P-Y751 HTRF in A10 cells stimulated with PDGF-BB). It is filed as cell-based. The gist of the method:
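Phospho-Y751 PDGFRβ was measured by HTRF in lysates of A10 rat cells. Cells received compound for 3 hours before PDGF-BB stimulation (100 ng/mL working stock).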

Chain of PDGFRβ (Q05030 32-1097): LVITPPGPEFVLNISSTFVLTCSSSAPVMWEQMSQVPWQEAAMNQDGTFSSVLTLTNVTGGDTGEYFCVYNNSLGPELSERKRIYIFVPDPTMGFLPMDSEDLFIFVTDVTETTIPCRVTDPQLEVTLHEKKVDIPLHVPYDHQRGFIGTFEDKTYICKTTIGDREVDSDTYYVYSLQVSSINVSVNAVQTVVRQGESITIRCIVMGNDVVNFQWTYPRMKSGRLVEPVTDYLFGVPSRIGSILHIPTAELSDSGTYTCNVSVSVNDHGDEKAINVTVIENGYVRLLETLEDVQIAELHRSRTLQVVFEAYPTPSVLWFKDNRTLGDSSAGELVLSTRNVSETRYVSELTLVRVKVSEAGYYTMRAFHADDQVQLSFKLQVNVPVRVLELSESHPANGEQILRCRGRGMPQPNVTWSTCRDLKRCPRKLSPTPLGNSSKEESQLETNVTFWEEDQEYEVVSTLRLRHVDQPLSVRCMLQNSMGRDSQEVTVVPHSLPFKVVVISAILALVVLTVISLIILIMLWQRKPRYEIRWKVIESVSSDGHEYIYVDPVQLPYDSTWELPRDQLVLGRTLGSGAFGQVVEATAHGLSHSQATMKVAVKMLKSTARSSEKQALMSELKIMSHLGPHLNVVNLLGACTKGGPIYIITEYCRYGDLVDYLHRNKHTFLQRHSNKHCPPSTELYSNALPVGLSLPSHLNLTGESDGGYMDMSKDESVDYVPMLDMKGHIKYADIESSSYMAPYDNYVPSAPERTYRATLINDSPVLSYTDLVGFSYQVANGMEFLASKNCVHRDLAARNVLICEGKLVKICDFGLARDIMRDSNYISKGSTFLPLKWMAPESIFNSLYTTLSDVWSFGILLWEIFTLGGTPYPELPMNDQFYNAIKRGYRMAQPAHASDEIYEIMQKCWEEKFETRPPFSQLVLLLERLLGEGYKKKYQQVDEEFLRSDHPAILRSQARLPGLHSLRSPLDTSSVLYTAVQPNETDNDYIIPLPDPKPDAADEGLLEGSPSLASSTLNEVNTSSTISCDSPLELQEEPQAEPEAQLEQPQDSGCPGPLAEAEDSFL
Chain of His6-TEV-PDGFRβ (557-1016) (P09619 557-1016): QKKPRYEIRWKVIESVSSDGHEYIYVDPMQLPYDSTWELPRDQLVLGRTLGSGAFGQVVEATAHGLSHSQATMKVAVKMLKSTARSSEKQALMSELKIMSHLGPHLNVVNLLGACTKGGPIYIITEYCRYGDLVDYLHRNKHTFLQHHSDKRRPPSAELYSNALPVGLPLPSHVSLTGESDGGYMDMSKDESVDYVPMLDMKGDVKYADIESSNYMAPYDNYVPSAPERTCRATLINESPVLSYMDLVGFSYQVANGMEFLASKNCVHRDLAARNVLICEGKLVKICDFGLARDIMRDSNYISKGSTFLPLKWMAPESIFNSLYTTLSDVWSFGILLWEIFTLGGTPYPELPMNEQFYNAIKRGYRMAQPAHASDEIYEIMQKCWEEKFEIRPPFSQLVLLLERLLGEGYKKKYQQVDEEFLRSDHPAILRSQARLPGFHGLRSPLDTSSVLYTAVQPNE

With `Cc1ncc(NC(=O)CN2CCC[C@@H]2C)cc1NC(=O)c1cnn2cc(-c3cnn4c3OCCC4)sc12` [Example 413, (S)-2-(6,7-dihydro-5H-pyrazolo[5,1-b][1,3]oxazin-3-yl)-N-(2-methyl-5-(2-(2-methylpyrrolidin-1-yl)acetamido)pyridin-3-yl)pyrazolo[5,1-b]thiazole-7-carboxamide], the IC50 turned out to be 0.3 nM in assay [1], 2.9 nM in assay [2] and 3.4 nM in assay [3] (read-out: PDGFR Cellular IC50).

On to `Cc1ncc(NC(=O)CN2CCC(C)C2)cc1NC(=O)c1cnn2cc(-c3cn(C)nc3C)sc12` (stereo not drawn) [Example 446, 2-(1,3-Dimethyl-1H-pyrazol-4-yl)-N-(2-methyl-5-(2-(3-methylpyrrolidin-1-yl)acetamido)pyridin-3-yl)pyrazolo[5,1-b]thiazole-7-carboxamide], for which the IC50 in assay [1] amounted to 0.3 nM; in assay [2], 3.5 nM; in assay [3] (read-out: PDGFR Cellular IC50), 3 nM.

On to `Cc1ncc(NC(=O)CN2CCCC23CCC3)cc1NC(=O)c1cnn2cc(-c3cnc4n3CCOC4)sc12` [Example 418, N-(5-(2-(5-azaspiro[3.4]octan-5-yl)acetamido)-2-methylpyridin-3-yl)-2-(5,6-dihydro-8H-imidazo[2,1-c][1,4]oxazin-3-yl)pyrazolo[5,1-b]thiazole-7-carboxamide], for which the IC50 in assay [1] was determined as 0.5 nM; in assay [2], 2.9 nM; in assay [3] (read-out: PDGFR Cellular IC50), 6.5 nM.

`Cc1ncc(NC(=O)CN2C[C@@H](C)O[C@H](C)C2)cc1NC(=O)c1cnn2cc(-c3cnn(C)c3C)sc12` (relative stereo) [Example 433, 2-(1,5-Dimethyl-1H-pyrazol-4-yl)-N-(5-(2-(trans-2,6-dimethylmorpholino)acetamido)-2-methylpyridin-3-yl)pyrazolo[5,1-b]thiazole-7-carboxamide]: the results for the IC50 in assay [1], in assay [2] and in assay [3] (read-out: PDGFR Cellular IC50) were 0.5 nM, 4 nM and 5.1 nM, respectively.

Consider `Cc1ncc(C(=O)NCC2CCCN2C)cc1NC(=O)c1cnn2cc(-c3cnn4c3CCC4)sc12` (stereo not drawn) [Example 469, 2-(5,6-dihydro-4H-pyrrolo[1,2-b]pyrazol-3-yl)-N-(2-methyl-5-(((1-methylpyrrolidin-2-yl)methyl)carbamoyl)pyridin-3-yl)pyrazolo[5,1-b]thiazole-7-carboxamide], for which the figures for the IC50 in assay [1], in assay [2] and in assay [3] (read-out: PDGFR Cellular IC50) were 0.3 nM, 5.5 nM and 40.5 nM, respectively.

`Cc1ncc(NC(=O)CN2CC(C)(C)C2)cc1NC(=O)c1cnn2cc(-c3cccnc3OC(F)(F)F)sc12` [Example 437, N-(5-(2-(3,3-dimethylazetidin-1-yl)acetamido)-2-methylpyridin-3-yl)-2-(2-(trifluoromethoxy)pyridin-3-yl)pyrazolo[5,1-b]thiazole-7-carboxamide]: the IC50 was 0.4 nM in assay [1], 4.6 nM in assay [2] and 6 nM in assay [3] (read-out: PDGFR Cellular IC50).

Take `Cc1ncc(NC(=O)CN2CC(C)(C)C2)cc1NC(=O)c1cnn2cc(-c3ccnnc3C)sc12` [Example 410, N-(5-(2-(3,3-dimethylazetidin-1-yl)acetamido)-2-methylpyridin-3-yl)-2-(3-methylpyridazin-4-yl)pyrazolo[5,1-b]thiazole-7-carboxamide]: the results for the IC50 in assay [1], in assay [2] and in assay [3] (PDGFR Cellular IC50) were 6.2 nM, 190 nM and 270 nM, respectively.

For `Cc1ncc(NC(=O)CN2CC(C)(C)C2)cc1NC(=O)c1cnn2cc(-c3cnn4c3CCC4)sc12` [Example 409, 2-(5,6-dihydro-4H-pyrrolo[1,2-b]pyrazol-3-yl)-N-(5-(2-(3,3-dimethylazetidin-1-yl)acetamido)-2-methylpyridin-3-yl)pyrazolo[5,1-b]thiazole-7-carboxamide], the results for the half-inhibitory concentration (IC50) in assay [1], in assay [2] and in assay [3] (read-out: PDGFR Cellular IC50) were 0.2 nM, 1.3 nM and 1.6 nM, respectively.

`Cc1ncc(NC(=O)CN2CC3(CCCCO3)C2)cc1NC(=O)c1cnn2cc(-c3cnn4c3CCC4)sc12` [Example 424, N-(5-(2-(5-oxa-2-azaspiro[3.5]nonan-2-yl)acetamido)-2-methylpyridin-3-yl)-2-(5,6-dihydro-4H-pyrrolo[1,2-b]pyrazol-3-yl)pyrazolo[5,1-b]thiazole-7-carboxamide]: the figures for the IC50 in assay [1], in assay [2] and in assay [3] (read-out: PDGFR Cellular IC50) were 0.3 nM, 2.2 nM and 6.8 nM, respectively.

On to `Cc1ncc(C(=O)NCCN2CC3CCC2CC3)cc1NC(=O)c1cnn2cc(-c3cnn4c3OCCC4)sc12` [Example 477, N-(5-((2-(2-azabicyclo[2.2.2]octan-2-yl)ethyl)carbamoyl)-2-methylpyridin-3-yl)-2-(6,7-dihydro-5H-pyrazolo[5,1-b][1,3]oxazin-3-yl)pyrazolo[5,1-b]thiazole-7-carboxamide], for which the IC50 came to 0.3 nM in assay [1], 2.3 nM in assay [2] and 45.5 nM in assay [3] (read-out: PDGFR Cellular IC50).

Regarding `Cc1ncc(NC(=O)CNCC2CC2)cc1NC(=O)c1cnn2cc(-c3cnn4c3CCC4)sc12` [Example 454, N-(5-(2-((cyclopropylmethyl)amino)acetamido)-2-methylpyridin-3-yl)-2-(5,6-dihydro-4H-pyrrolo[1,2-b]pyrazol-3-yl)pyrazolo[5,1-b]thiazole-7-carboxamide], the IC50 in assay [1] turned out to be 0.4 nM; in assay [2] it was 4.6 nM; in assay [3] (read-out: PDGFR Cellular IC50) it was 12.7 nM.

In the case of `COCCn1cc(-c2cn3ncc(C(=O)Nc4cc(NC(=O)CCC5CCCN5C(C)C)cnc4C)c3s2)cn1` (stereo not drawn) [Example 463, N-(5-(3-(1-isopropylpyrrolidin-2-yl)propanamido)-2-methylpyridin-3-yl)-2-(1-(2-methoxyethyl)-1H-pyrazol-4-yl)pyrazolo[5,1-b]thiazole-7-carboxamide], the IC50 in assay [1] came out at 0.7 nM; in assay [2], 11 nM; in assay [3] (read-out: PDGFR Cellular IC50), 782 nM.

Turning to `Cc1ncc(C(=O)NCCN2CCCC2(C)C)cc1NC(=O)c1cnn2cc(-c3cnn4c3CCC4)sc12` [Example 481, 2-(5,6-dihydro-4H-pyrrolo[1,2-b]pyrazol-3-yl)-N-(5-((2-(2,2-dimethylpyrrolidin-1-yl)ethyl)carbamoyl)-2-methylpyridin-3-yl)pyrazolo[5,1-b]thiazole-7-carboxamide], the IC50 in assay [1] stood at 0.3 nM; in assay [2], 2 nM; in assay [3] (read-out: PDGFR Cellular IC50) it was 3.9 nM.

As for `Cc1ncc(NC(=O)CN2CC(C)(C)C2)cc1NC(=O)c1cnn2cc(-c3cnc4n3CCOC4)sc12` [Example 415, 2-(5,6-dihydro-8H-imidazo[2,1-c][1,4]oxazin-3-yl)-N-(5-(2-(3,3-dimethylazetidin-1-yl)acetamido)-2-methylpyridin-3-yl)pyrazolo[5,1-b]thiazole-7-carboxamide], the IC50 in assay [1] worked out at 0.5 nM; in assay [2] it was 6.6 nM; in assay [3] (read-out: PDGFR Cellular IC50), 41.5 nM.

As for `Cc1ncc(NC(=O)CNC2CCCC2)cc1NC(=O)c1cnn2cc(-c3cnn4c3OCCC4)sc12` [Example 421, N-(5-(2-(cyclopentylamino)acetamido)-2-methylpyridin-3-yl)-2-(6,7-dihydro-5H-pyrazolo[5,1-b][1,3]oxazin-3-yl)pyrazolo[5,1-b]thiazole-7-carboxamide], the IC50 in assay [1] worked out at 0.2 nM; in assay [2] it was 2 nM; in assay [3] (read-out: PDGFR Cellular IC50), 6.2 nM.

Consider `Cc1ncc(NC(=O)CC2CNC2)cc1NC(=O)c1cnn2cc(-c3cnn4c3CCC4)sc12` [Example 426, N-(5-(2-(azetidin-3-yl)acetamido)-2-methylpyridin-3-yl)-2-(5,6-dihydro-4H-pyrrolo[1,2-b]pyrazol-3-yl)pyrazolo[5,1-b]thiazole-7-carboxamide], for which the values for the IC50 in assay [1], in assay [2] and in assay [3] (read-out: PDGFR Cellular IC50) were 11.5 nM, 482 nM and > 2000 nM, respectively.

With `Cc1cc(C(=O)NCCN2CCCC2(C)C)sc1NC(=O)c1cnn2cc(-c3cccnc3)sc12` [Example 36, N-(5-((2-(2,2-dimethylpyrrolidin-1-yl)ethyl)carbamoyl)-3-methylthiophen-2-yl)-2-(pyridin-3-yl)pyrazolo[5,1-b]thiazole-7-carboxamide], the IC50 in assay [1] turned out to be 0.5 nM; in assay [2] it was 19.3 nM; in assay [3] (read-out: PDGFR Cellular IC50), 9 nM.

Consider `Cc1ncc(NC(=O)CN2CCCC[C@@H]2C)cc1NC(=O)c1cnn2cc(-c3cnn(CCO)c3)sc12` [Example 34, (S)-2-(1-(2-hydroxyethyl)-1H-pyrazol-4-yl)-N-(2-methyl-5-(2-(2-methyl-piperidin-1-yl)acetamido)pyridin-3-yl)pyrazolo[5,1-b]thiazole-7-carboxamide], for which the IC50 was 1.7 nM in assay [1], 13.4 nM in assay [2] and 30.3 nM in assay [3] (PDGFR Cellular IC50).

As for `Cc1ncc(NC(=O)C[C@H]2CCN(C(C)C)C2)cc1NC(=O)c1cnn2cc(-c3cnn(C)c3)sc12` [Example 465, (R)—N-(5-(2-(1-isopropylpyrrolidin-3-yl)acetamido)-2-methylpyridin-3-yl)-2-(1-methyl-1H-pyrazol-4-yl)pyrazolo[5,1-b]thiazole-7-carboxamide], the IC50 worked out at 3 nM in assay [1], 73.9 nM in assay [2] and 1860 nM in assay [3] (read-out: PDGFR Cellular IC50).

For `CCCNCC(=O)Nc1cnc(C)c(NC(=O)c2cnn3cc(-c4cnn5c4OCCC5)sc23)c1` [Example 455, 2-(6,7-dihydro-5H-pyrazolo[5,1-b][1,3]oxazin-3-yl)-N-(2-methyl-5-(2-(propylamino)acetamido)pyridin-3-yl)pyrazolo[5,1-b]thiazole-7-carboxamide], the IC50 in assay [1] came out at 0.6 nM; in assay [2] it was 3.3 nM; in assay [3] (PDGFR Cellular IC50), 15 nM.

For the origin of these results see US20240109917A1 (ACTELION PHARMACEUTICALS LTD, priority 2020, published 2024).
